Assay results taken from patent publication US5639779A, “Indole derivatives as 5-HT1-like agonists” (Pfizer Inc., priority 1992, dated 1997).

What was measured:
conscious dogs = assay: acute toxicity in conscious dogs; assay type: in vivo, dog; details: doses of up to 1 mg/Kg i.v.
[1] = biological target: T1, "5-HT1 -like" receptor (dog isolated saphenous vein strip) (Canis lupus familiaris, UniProt P79250); assay: contraction of dog isolated saphenous vein strip (5-HT1-like receptor agonist activity); assay type: cell-based; details: in vitro; for RELATIVE POTENCY EC50 (compound)/EC50 (5-HT): ratio to 5-HT; for EC50: read-out: EC50 (concentration of compound which causes 50% of the maximum contraction effected by it)
T1 construct: contracting the isolated dog saphenous vein strip; from tissue; host or cells: dog isolated saphenous vein strip
Method: The in vitro evaluation of the "5-HT1 -like" receptor agonist activity of the compounds of the invention is carried out by testing the extent to which they mimic sumatriptan in contracting the isolated dog saphenous vein strip (P. P. A. Humphrey et al., Brit. J. Pharmacol., 1988, 94, 1123).
The following Table illustrates the in vitro activities for a range of the Compounds of the invention on dog isolated saphenous vein strip. EC50 represents the concentration of compound which causes 50% of the maximum contraction effected by it.

[2] = system: carotid vascular resistance / carotid arterial blood flow; details: anaesthetized dog; cited from earlier work
[3] = biological target: T1, "5-HT1 -like" receptor (dog isolated saphenous vein strip); details: effect of sumatriptan-like contraction blocked by a known 5-HT antagonist; cited from earlier work

T1 sequence (P79250 whole entry): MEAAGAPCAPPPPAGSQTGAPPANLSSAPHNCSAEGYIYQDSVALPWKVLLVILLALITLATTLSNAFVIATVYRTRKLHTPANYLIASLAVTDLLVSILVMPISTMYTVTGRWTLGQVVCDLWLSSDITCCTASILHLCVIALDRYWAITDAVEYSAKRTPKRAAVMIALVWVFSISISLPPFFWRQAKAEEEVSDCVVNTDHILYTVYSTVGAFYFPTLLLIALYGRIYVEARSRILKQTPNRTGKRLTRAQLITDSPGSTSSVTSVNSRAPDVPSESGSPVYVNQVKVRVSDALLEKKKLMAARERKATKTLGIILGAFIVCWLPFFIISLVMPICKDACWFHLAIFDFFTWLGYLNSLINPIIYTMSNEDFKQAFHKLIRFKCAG

Row | Compound | RELATIVE POTENCY EC50 (compound)/EC50 (5-HT) [1] | EC50 [1] | signs of adverse acute toxicity (conscious dogs) | carotid arterial blood flow [2] | blockade of contraction of dog saphenous vein strip [3]
1 | CCS(=O)(=O)CCc1ccc2[nH]cc(C[C@H]3CCCN3C(C)c3ccccc3)c2c1 (mixture of isomers) [Example 13, 5-(2-Ethylsulphonylethyl)-3-{N-(1(R,S)-phenylethyl]-2(R)-pyrrolidinylmethyl}-1H-indole] | 1.4 | 71 nM | no signs of adverse acute toxicity |  | 
2 | CCS(=O)(=O)CCc1ccc2[nH]cc(C[C@H]3CCCN3Cc3ccccn3)c2c1 [Example 1, 5-(2-Ethylsulphonylethyl)-3-[N-[2-pyridylmethyl)-2(R)-pyrrolidinylmethyl]-1H-indole] | 9.4 | 430 nM |  |  | 
3 | CCS(=O)(=O)CCc1ccc2[nH]cc(C[C@H]3CCCN3CCOC)c2c1 [Example 4, 5-(2-Ethylsulphonylethyl)-3-[N-(2-methoxyethyl)-2-(R)-pyrrolidinylmethyl]-1H-indole] | 2.3 | 120 nM |  |  | 
4 | CCS(=O)(=O)CCc1ccc2[nH]cc(C[C@H]3CCCN3CC=C(C)C)c2c1 [Example 8, 5-(2-Ethylsulphonylethyl)-3-[N-(3-methyl-2-butenyl)-2(R)-pyrrolidinylmethyl]-1H-indole] | 2.5 | 190 nM | no signs of adverse acute toxicity |  | 
5 | CCS(=O)(=O)CCc1ccc2[nH]cc(C[C@H]3CCCN3C3CCCC3)c2c1 [Example 9, 3-(N-Cyclopentyl-2(R)-pyrrolidinylmethyl)-5-(2-ethylsulphonylethyl)-1H-indole] | 1.8 | 82 nM |  |  | 
6 | O=S(=O)(CCc1ccc2[nH]cc(C[C@H]3CCCN3C3CCCC3)c2c1)c1ccccc1 [Example 21, 3-(N-Cyclopentyl-2(R)-pyrrolidinylmethyl)-5-(2-phenylsulphonylethyl)-1H-indole] | 4.9 | 560 nM |  |  | 
7 | NS(=O)(=O)C=Cc1ccc2[nH]cc(C[C@H]3CCCN3CC3CC3)c2c1 [Example 44, 3-(N-Cyclopropylmethyl-2(R)-pyrrolidinomethyl)-5-(2-sulphamoylethenyl)-1H-indole] | 2.7 | 180 nM |  |  | 
8 | CNS(=O)(=O)Cc1ccc2[nH]cc(CCN(C)C)c2c1 [Sumatriptan] |  |  |  | consequent decrease | 
9 | CSc1ccc2c(c1)C(N1CCN(C)CC1)Cc1ccccc1S2 (stereo not drawn) [methiothepin] |  |  |  |  | can be blocked

The next lines start with results.

Row | RELATIVE POTENCY EC50 (compound)/EC50 (5-HT) [1] | EC50 [1] | Compound | signs of adverse acute toxicity (conscious dogs) | carotid arterial blood flow [2] | blockade of contraction of dog saphenous vein strip [3]
10 | 4.6 | 290 nM | CCS(=O)(=O)CCc1ccc2[nH]cc(C[C@H]3CCCN3CC[S+]([O-])c3ccccc3)c2c1 (single isomer, unassigned) [Example 37A] |  |  | 
11 | 3.8 | 160 nM | CCS(=O)(=O)CCc1ccc2[nH]cc(C[C@H]3CCCN3CCO)c2c1 [Example 26, 5-(2-Ethylsulphonylethyl)-3-[N-(2-hydroxyethyl)-2(R)pyrrolidinylmethyl]-1H-indole] |  |  | 
12 | 1.9 | 31 nM | CCS(=O)(=O)CCc1ccc2[nH]cc(C[C@H]3CCCN3CCC(C)=O)c2c1 [Example 31, 5-(2-Ethylsulphonylethyl)-3-[N-{3-oxo-1-butyl)-2(R)-pyrrolidinylmethyl]-1H-indole] |  |  | 
13 | 1.4 | 62 nM | CCS(=O)(=O)CCc1ccc2[nH]cc(C[C@H]3CCCN3CCC(N)=O)c2c1 [Example 34] |  |  | 
14 | 11.0 | 290 nM | CCS(=O)(=O)CCc1ccc2[nH]cc(C[C@H]3CCCN3CCc3ccccn3)c2c1 [Example 36] |  |  | 
15 | 3.4 | 440 nM | CC(=O)CCN1CCC[C@@H]1Cc1c[nH]c2ccc(CCS(=O)(=O)c3ccccc3)cc12 [Example 38, 3-[N-(3-Oxo-1-butyl)-2-(R)-pyrroldinylmethyl]-5-(2phenylsulphonylethyl)-1H-indole] |  |  | 
